According to patent US11253525B2, “Inhibitors of indoleamine 2,3-dioxygenase and methods of their use” (BRISTOL-MYERS SQUIBB COMPANY, priority 2018, dated 2022):
Like-named read-outs stand apart in the source and are kept apart here.

Assays:
human IDO1 = molecular target: T1, human IDO1 (Homo sapiens, UniProt P14902); assay: HEK293 cell-based indoleamine 2,3-dioxygenase (IDO) assay; conditions: human IDO1/HEK293 cells, 20 hours
T1 construct: expressed in transfected cells
Experimental: Assessment of Inhibitor Activity in HEK293 Cell-Based Indoleamine 2,3-Dioxygenase (IDO) Assay
HEK293 cells were transfected with a pCDNA-based mammalian expression vector harboring human IDO1 cDNA (NM 002164.2) by electroporation. They were cultured in medium (DMEM with 10% FBS) containing 1 mg/ml G418 for two weeks. Clones of HEK293 cells that stably expressed human IDO1 protein were selected and expanded for IDO inhibition assay.
The human IDO1/HEK293 cells were seeded at 10,000 cells per 50 μL per well with RPMI/phenol red free media contains 10% FBS in a 384-well black wall clear bottom tissue culture plate (Matrix Technologies LLC) 100 nL of certain concentration of compound was then added to each well using ECHO liquid handling systems. The cells were incubated for 20 hours in 37° C. incubator with 5% CO2.
The compound treatments were stopped by adding trichloroacetic acid (Sigma-Aldrich) to a final concentration at 0.2%. The cell plate was further incubated at 50° C. for 30 minute. The equal volume supernatant (20 μL) and 0.2% (w/v) Ehrlich reagent (4-dimethylaminobenzaldehyde, Sigma-Aldrich) in glacial acetic acid were mixed in a new clear bottom 384-well plate. This plate was then incubated at room temperature for 30 minute. The absorbance at 490 nm was measured on Envision plate reader.
Compound IC50 values were calculated using the counts of 500 nM of a reference standard treatment as one hundred percent inhibition, and counts of no compound but DMSO treatment as zero percent inhibition.

[1] = molecular target: T2, indoleamine 2,3-dioxygenase (IDO) (Homo sapiens, UniProt P14902); assay: HeLa cell-based indoleamine 2,3-dioxygenase (IDO) assay, kynurenine production; conditions: HeLa cells, IFNγ 25 ng/mL, 48 hour incubation
T2 construct: replaced with media containing IFNγ (#285-IF/CF, R&D Systems) at a final concentration of 25 ng/mL; endogenous in cells; host or cells: HeLa (ATCC CCL-2), IFN-gamma stimulated

[2] = read-out: IDO Hela IC50 class (A < 50, B < 250, C < 2000)
[3] = read-out: IDO1 HEK Human IC50 class (A < 50, B < 250, C < 2000)

T1 sequence (P14902 whole entry): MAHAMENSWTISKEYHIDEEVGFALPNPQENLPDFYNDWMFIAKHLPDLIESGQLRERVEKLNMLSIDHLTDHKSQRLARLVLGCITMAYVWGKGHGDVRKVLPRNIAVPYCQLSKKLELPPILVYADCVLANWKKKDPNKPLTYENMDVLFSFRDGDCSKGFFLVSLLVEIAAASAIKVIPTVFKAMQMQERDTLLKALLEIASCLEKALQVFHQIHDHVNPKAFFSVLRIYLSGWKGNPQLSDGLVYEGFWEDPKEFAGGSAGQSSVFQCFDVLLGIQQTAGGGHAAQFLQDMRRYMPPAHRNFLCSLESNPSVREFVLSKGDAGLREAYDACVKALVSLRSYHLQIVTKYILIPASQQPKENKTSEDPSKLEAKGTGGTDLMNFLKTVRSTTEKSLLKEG
T2 sequence (P14902 whole entry): as above

Row | SMILES | IC50 (human IDO1; read-out: IDO1 HEK Human IC50) | IC50 [1, 2] | IC50 ([1]; read-out: IDO Hela IC50) | IC50 (human IDO1; [3])
1 | CCO[C@@H](c1ccc([C@H](CC)CC(=O)O)cc1Nc1ccc(Cl)cc1)C(F)(F)F (stereo in doubt) [Example 34, (R)-3-(3-((4-chlorophenyl)amino)-4-((S)-1-ethoxy-2,2,2-trifluoroethyl)phenyl)pentanoic acid] | 1 nM | < 50 nM | – | –
2 | CCO[C@H](c1ccc(F)cc1)c1cc(Nc2ccc(Cl)cc2)cc([C@H](CC)CC(=O)O)c1 (single isomer, unassigned) [Example 113-1] | 20 nM | – | 20 nM | –
3 | CCO[C@@H](c1ccc(F)cc1)c1cc(Nc2ccc3nc(C)sc3c2)cc([C@H](CC)CC(=O)O)c1 (single isomer, unassigned) [Example 114] | 23 nM | – | 20 nM | –
4 | CC(C)CC(CC(C)C)c1ccc(-c2ccccc2-c2nn[nH]n2)cc1NC(=O)Nc1ccc(Cl)cc1F [Example 135, 1-(4-Chloro-2-fluorophenyl)-3-(4-(2,6-dimethylheptan-4-yl)-2′-(2H-tetrazol-5-yl)-[1,1′-biphenyl]-3-yl)urea] | 10 nM | – | 10 nM | –
5 | CCO[C@@H](c1ccc(F)cc1)c1cc(Nc2ccc(Cl)cc2)cc([C@@H](CC)CC(=O)O)c1 (single isomer, unassigned) [Example 112-2] | 7 nM | – | 30 nM | –
6 | CCO[C@H](c1ccc([C@H](CC)CC(=O)O)cc1Nc1ccc(Cl)cc1)C(F)(F)F (single isomer, unassigned) [Example 11] | 1 nM | < 50 nM | – | –
7 | CCO[C@H](c1ccc(F)cc1)c1cc(Nc2ccc3nc(C)sc3c2)cc([C@@H](CC)CC(=O)O)c1 (single isomer, unassigned) [Example 117] | – | – | – | 250 to 2000 nM
8 | CCOC(C)(C)c1ccc([C@@H](CC)CC(=O)O)cc1NC(=O)Nc1ccc(C)cc1 (single isomer, unassigned) [Example 2] | 224 nM | – | – | 250 to 2000 nM
9 | CCO[C@H](c1ccc([C@@H](CC)CC(=O)O)cc1Nc1ccc(Cl)cc1)C(F)(F)F (stereo in doubt) [Example 23, (S)-3-(3-((4-chlorophenyl)amino)-4-((R)-1-ethoxy-2,2,2-trifluoroethyl)phenyl)pentanoic acid] | 1 nM | – | – | –
10 | CCO[C@@H](c1ccc(F)cc1)c1cc(Nc2ccc(Cl)cc2)cc([C@H](CC)CC(=O)O)c1 (single isomer, unassigned) [Example 112-1] | 2 nM | < 50 nM | – | –
11 | CCOC(C)(C)c1ccc([C@@H](CC)CC(=O)O)cc1Nc1ccc2nc(C)sc2c1 (single isomer, unassigned) [Example 4] | – | – | – | 250 to 2000 nM
12 | CC[C@@H](CC(=O)O)c1ccc(C(CC(C)C)CC(C)C)c(NC(=O)Nc2ccc(C)cc2)c1 [Example 137, (S)-3-(4-(2,6-Dimethylheptan-4-yl)-3-(3-(p-tolyl)ureido)phenyl)pentanoic Acid] | 4 nM | < 50 nM | – | –
13 | CCOC(C)(C)c1ccc(C(CC)CC(=O)O)cc1Nc1ccc2nc(C)sc2c1 (single isomer, unassigned) [Example 3] | – | – | – | 250 to 2000 nM
